“Also recorded” adds a separate entry of the source.
How the values were obtained:
[1] = target: T1, human constitutive 20S proteasome (Homo sapiens, UniProt P25787+P25789); assay: Fluorogenic peptide degradation 20S proteasome activity assay; type: biochemical; settings: for 20S proteasome activity (in words): 0-80 μM; for AC200 (concentration achieving a doubling of 20S activity): combination of the three fluorogenic substrates (CT-L, T-L, Casp-L)
T1 construct: purchased Boston Biochem, Inc. (Cambridge, Mass.)
Experimental: Fluorogenic peptide degradation 20S proteasome activity assay. Activity assays were carried out in a 100 μL reaction volume. Different concentrations (1-80 μM) of test compounds were added to a black flat/clear bottom 96-well plate containing 1 nM of human constitutive 20S proteasome, in 50 mM Tris-HCl at pH 7.8, 100 mM NaCl and allowed to incubate for 15 min at 37° C. Fluorogenic substrates were then added and the enzymatic activity measured at 37° C. on a SpectraMax M5e spectrometer by measuring the change in fluorescence unit per minute for 1 hour at 380-460 nm. The fluorescence units for the vehicle control were set at a 100%, and the ratio of drug-treated sample set to that of vehicle control was used to calculate the fold change in enzymatic activity. The fluorogenic substrates used were one of the following: Suc-LLVY-AMC (CT-L activity, 20 μM), Z-LLE-AMC (Casp-L activity, 20 μM), Boc-LRR-AMC (T-L activity, 40 μM) or a combination of the three substrates each at 6.67 μM.

[2] = target: T2, human constitutive 20S proteasome impaired by amyloid beta oligomer mixture (Homo sapiens, UniProt P25787+P25789); assay: IDP oligomer inhibition in fluorogenic peptide degradation assay (amyloid beta oligomers); type: biochemical; settings: 1-10 μM, concentration dependent; CT-L substrate; 2.5 μM amyloid beta
T2 construct: purchased Boston Biochem, Inc. (Cambridge, Mass.)
Experimental: Amylold beta aggregate preparation. Synthetic amyloid beta was purchased from Eurogentec. To remove preexisting aggregates, synthetic amyloid beta peptide was dissolved in 100% hexafluoroisopropanol (HFIP) and incubated at 37° C. for 2 h. The HFIP was removed and the remaining peptide films were stored at −80° C. until use. Aggregates were prepared by resuspending amyloid beta films with DMSO (50 μL per 1 mg of peptide), followed by addition of ultrapure H2O (800 μL) and rapid addition of 2 M Tris-base (10 μL) at pH 7.6. The solution was then vortexed for 5 seconds and allowed to incubate at room temperature for 5 minutes. The Amyloid beta mixture was then diluted to the desired concentration and used immediately.
IDP oligomer Inhibition in fluorogenic peptide degradation assay. Assays were carried out in a 100 μL reaction volume. […] The enzymatic activity was measured at 37° C. on a SpectraMax M5e spectrometer by measuring the change in fluorescence unit per minute for 1 hour at 380-460 nm. The fluorescence units for the vehicle control were set at a 100%, and the ratio of drug-treated or just oligomer-treated samples to the vehicle control was used to calculate the relative enzymatic activity.

[3] = target: T3, human constitutive 20S proteasome impaired by α-synuclein oligomer mixture (Homo sapiens, UniProt P25787+P25789); assay: IDP oligomer inhibition in fluorogenic peptide degradation assay (α-synuclein oligomers); type: biochemical; settings: 1-10 μM, concentration dependent; CT-L substrate; 500 nM α-synuclein oligomers
T3 construct: purchased Boston Biochem, Inc. (Cambridge, Mass.)
Experimental: IDP oligomer Inhibition in fluorogenic peptide degradation assay. Assays were carried out in a 100 μL reaction volume. Different concentrations (1-10 μM) of test compounds were added to a black flat/clear bottom 96-well plate containing 1 nM of human constitutive 20S proteasome, in 50 mM Tris-HCl at pH 7.8 and allowed to incubate for 15 min at 37° C. Then, 1 μL of α-synuclein or amyloid beta oligomer mixture of was added to each sample to a final concentration of 500 nM for α-synuclein and 2.5 μM for amyloid beta. This mixture was then allowed to incubate again for 15 min at 37° C. Next, 10 μL of CT-L fluorogenic substrate was added to a final concentration of 20 μM. The enzymatic activity was measured at 37° C. on a SpectraMax M5e spectrometer by measuring the change in fluorescence unit per minute for 1 hour at 380-460 nm. The fluorescence units for the vehicle control were set at a 100%, and the ratio of drug-treated or just oligomer-treated samples to the vehicle control was used to calculate the relative enzymatic activity.

[4] = target: T4, purified human 20S proteasome (Homo sapiens, UniProt P25787+P25789); assay: In vitro purified α-synuclein oligomer degradation assay (western blot); type: biochemical; settings: 24 hours incubation with 20S proteasome
T4 construct: purchased Boston Biochem, Inc. (Cambridge, Mass.)
Experimental: In vitro purified α-synuclein oligomer degradation assay (western blot). Digestion of α-synuclein oligomer mixture was carried out in a 50 μL reaction volume made of 50 mM Tris at pH 7.8; 0.33 μM α-synuclein oligomer mixture and 6.7 nM purified human 20S proteasome. Briefly, 20S proteasome was diluted to 7.58 nM in the reaction buffer. Fluspirilene or vehicle (1 μL of 50×stock or DMSO) were added to 44 μL of 7.58 nM 20S and incubated at 37° C. for 20 min. The substrate (5 μL of 3.3 μM synuclein oligomer mixture) was then added to the reaction mixture and incubated at 37° C. for 24 hours. The reactions were then quenched with concentrated SDS loading buffer. Samples were resolved on a 4-20% Tris-glycine SDS-PAGE and immunoblotted with mouse monoclonal anti α-synuclein IgG (1:2000) and anti-mouse HRP-linked IgG (1:2000). Blots were developed with ECL western reagent and imaged with an Azure Biosystems 3000 imager.

[5] = test system: A53T α-synuclein in transiently transfected HEK-293T cells; assay: A53T α-synuclein digestion in HEK-293T cells; type: cell-based, human; settings: for accumulation of A53T α-synuclein protein: 10 or 30 μM, 8 hours, with cycloheximide 100 μg/mL, concentration dependent
Experimental: Cell culture. Human embryonic kidney cells (HEK293T) were maintained in Dulbecco's modified Eagle's medium (DMEM) supplemented with 10% fetal bovine serum and 100 units/mL penicillin/streptomycin, at 37° C. with 5% CO2.
Transient transfection of A53T α-synuclein plasmid Into HEK-293T cells. Cells were grown according using the methods stated above to ˜50-70% confluency. At this point plasmid prepared with Xfect transfection agent (prepared following manufacturers protocol) was added to the HEK-293 cells and incubated for 4 hours. The media was then replaced with fresh culture media and the cells were returned to the incubator for 24 hours prior to treatment.
A53T α-synuclein digestion in HEK-293T cells. HEK-293T cells were transfected as described above and incubated for 24 hours. The cells were then treated with 100 μg/mL of cycloheximide, in combination with either vehicle (DMSO), fluspirilene (10 or 30 μM), N-acylated fluspirilene (10 or 30 μM), bortezomib (100 nM), or a combination thereof for 8 hours. The cells were then lysed using RIPA buffer and the manufacturers protocol. A BCA assay was performed to quantify protein levels and the lysates were normalized to desired concentrations prior to electrophoresis and western blot analysis, performed as described previously.

dopamine D2 receptor = dopamine D2 receptor (Homo sapiens, UniProt P14416); settings: cited from earlier work
26S proteasome = 26S proteasome (Homo sapiens, UniProt P25787+P25789); assay: Proteolysis of fluorogenic peptide substrates by purified 26S proteasome; type: biochemical; settings: 0-80 μM
Experimental: FIG. 1A is a plot showing the rate of proteolysis of fluorogenic peptide substrates by purified 20S and 26S proteasome in the presence of a concentration response (0-80 μM) of fluspirilene. […] Error bars denote standard deviation.
The small molecule antipsychotic drug fluspirilene was identified as a promising new scaffold for the development of 20S activators due to its strong enhancement of 20S proteolysis. To assess fluspirilene's 20S proteasome activity, a series of assays were performed using each of three fluorogenic peptide substrates. These substrates were a chymotryptic-like (CT-L), a trypsin-like (T-L) and a caspase-like (Casp-L) substrate, one for each of the catalytic sites of the proteasome. It has been shown that the proteasome's active sites allosterically regulate each other in the presence of their individual substrates. Therefore, a combination of the three probes to represent the overall activity of a 20S activator more accurately in a system in which all catalytic sites are interacting.

[6] = combination of the three catalytic site substrates

Sequence of dopamine D2 receptor (P14416 whole entry, species assumed): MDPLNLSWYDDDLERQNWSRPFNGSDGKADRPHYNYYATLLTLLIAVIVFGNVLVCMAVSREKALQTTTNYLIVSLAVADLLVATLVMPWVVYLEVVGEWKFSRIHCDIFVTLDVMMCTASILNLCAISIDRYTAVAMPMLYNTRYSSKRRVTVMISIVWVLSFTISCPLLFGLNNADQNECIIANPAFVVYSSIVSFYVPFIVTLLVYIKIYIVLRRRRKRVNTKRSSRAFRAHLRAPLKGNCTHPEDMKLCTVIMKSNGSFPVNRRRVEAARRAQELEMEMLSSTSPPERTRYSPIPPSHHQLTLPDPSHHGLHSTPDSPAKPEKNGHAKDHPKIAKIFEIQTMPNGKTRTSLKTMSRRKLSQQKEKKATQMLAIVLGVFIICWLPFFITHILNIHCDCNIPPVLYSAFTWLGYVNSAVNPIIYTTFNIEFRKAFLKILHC

maximum fold enhancement [1, 6] [%] | AC200 (concentration achieving a doubling of 20S activity) [1] [µM] | max fold increases, increase over vehicle ([1]; for each substrate/combination) [%] | activation of the CT-L site relative to fluspirilene ([1]; individual CT-L fluorescent peptide probe) | AC200 at the CT-L site ([1]; individual CT-L substrate (Suc-LLVY-AMC)) [µM] | AC200 at the Casp-L site ([1]; individual Casp-L substrate (Z-LLE-AMC)) [µM] | activation of the T-L site relative to fluspirilene ([1]; individual T-L fluorescent peptide probe) | prevention of 20S impairment by amyloid beta oligomers [2] | prevention of 20S impairment by α-syn oligomers [3] | remaining α-syn oligomers relative to vehicle control [4] | activation of the catalytic sites of the 20S proteasome ([1]; CT-L, T-L and Casp-L substrates) | maximum fold enhancement ([1]; combination of probes, over vehicle control) [fold] | enhancement of the proteolytic activity of the 26S proteasome (26S proteasome) | SMILES | 20S proteasome activity (in words) [1, 6] | accumulation of A53T α-synuclein protein [5] | effect on A53T α-synuclein when proteasome activity is blocked ([5]; in combination with bortezomib (100 nM)) | dopamine D2 receptor antagonism (dopamine D2 receptor)
 |  |  |  |  |  |  |  |  |  |  |  |  | O=C1NCN(c2ccccc2)C12CCN(CCC=C(c1ccc(F)cc1)c1ccc(F)cc1)CC2 [Compound 11] | lessened activity; also recorded: moderate activity |  |  | 
> 2000 | 1.9 | > 1500 | reduced activation | 4.7 | 4.1 | better activation | prevented 20S impairment | prevented 20S impairment | reduction in overall α-syn oligomers |  |  |  | O=C(CCC(c1ccc(F)cc1)c1ccc(F)cc1)N1CCC2(CC1)C(=O)NCN2c1ccccc1 [Compound 16] | promising; also recorded: excellent activity | effectively reduced the accumulation | abrogated | 
 | 2.2 |  |  |  |  |  | prevented 20S impairment | prevented 20S impairment | reduction in overall α-syn oligomers | activates all three catalytic sites | ~10 | did not enhance | O=C1NCN(c2ccccc2)C12CCN(CCCC(c1ccc(F)cc1)c1ccc(F)cc1)CC2 [Fluspirilene, fluspirilene, reference compound] | promising | effectively reduced the accumulation |  | potent

Source: patent US20230286982A1, “PROTEASOME ENHANCERS AND USES THEREOF” (Board of Trustees of Michigan State University, priority 2020, published 2023)
